Experimental data as given in PubChem BioAssay AID256 (DTP/NCI, 2004).
Several values for one entry are separate records, joined by “and”; a condition that tells them apart may be missing. Equal entries are not always repeated. Inconclusive results and toxic doses are left out. The calls were made as follows: active = survival T/C of 150% or more; inactive = T/C below 125% in these data.

Test system: CD2F1 mice, L1210 leukemia ip, survival T/C
Assay: NCI In Vivo Anticancer Drug Screen. Data for tumor model L1210 Leukemia (intraperitoneal) in CD2F1 (CDF1) mice
Details: endpoint: mean survival time, higher = longer survival
Summary of the method: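 Tumor-bearing mice (transplanted tumor) were split into treated and vehicle control groups, and the measured endpoint of each treated group was divided by that of its vehicle controls.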

[1] = dose: 100.0 mg/kg/injection, schedule: Q01DX009 (ip), vehicle: saline with Tween-80
[2] = dose: 100.0 mg/kg/injection, schedule: Q04DX003 (ip), vehicle: saline with Tween-80
[3] = dose: 200.0 mg/kg/injection, schedule: Q01DX009 (ip), vehicle: saline with Tween-80
[4] = dose: 200.0 mg/kg/injection, schedule: Q04DX003 (ip), vehicle: saline with Tween-80
[5] = dose: 400.0 mg/kg/injection, schedule: Q01DX009 (ip), vehicle: saline with Tween-80
[6] = dose: 400.0 mg/kg/injection, schedule: Q04DX003 (ip), vehicle: saline with Tween-80

Measured: T/C

Cc1ccc(S(=O)(=O)OCC2C3CCC(C3)C2COS(=O)(=O)c2ccc(C)cc2)cc1 (stereo not drawn)
inactive: dose: 25.0 mg/kg/injection, schedule: Q04DX002 (ip), vehicle: saline with Tween-80 95 % of control | dose: 50.0 mg/kg/injection, schedule: Q04DX002 (ip), vehicle: saline with Tween-80 95 % of control | dose: 100.0 mg/kg/injection, schedule: Q04DX002 (ip), vehicle: saline with Tween-80 95 % of control and 98 % of control

Cc1cccc(/C=N\N=C\c2cccc(C)n2)n1
inactive: [1] 96 % of control | [2] 95 % of control | [3] 90 % of control | [4] 91 % of control | [5] 98 % of control | [6] 107 % of control

Nc1nc(NCCc2ccccc2)c2ncn(C3OC(CO)C(O)C3O)c2n1 (stereo not drawn)
inactive: dose: 12.5 mg/kg/injection, schedule: Q01DX005 (ip), vehicle: other 102 % of control | dose: 25.0 mg/kg/injection, schedule: Q01DX005 (ip), vehicle: other 98 % of control | dose: 50.0 mg/kg/injection, schedule: Q01DX005 (ip), vehicle: other 104 % of control | dose: 100.0 mg/kg/injection, schedule: Q01DX005 (ip), vehicle: other 108 % of control

O=C1c2ccccc2C2c3[nH]c4ccccc4c3CCN12 (stereo not drawn)
inactive: dose: 100.0 mg/kg/injection, schedule: Q01DX009 (ip), vehicle: saline sonified 97 % of control | [2] 87 % of control | dose: 200.0 mg/kg/injection, schedule: Q01DX009 (ip), vehicle: saline sonified 96 % of control | [4] 95 % of control | dose: 400.0 mg/kg/injection, schedule: Q01DX009 (ip), vehicle: saline sonified 97 % of control | [6] 93 % of control

Cc1cc(N(CCCl)CCCl)c(C)cc1NC(=O)c1ccccc1
inactive: dose: 4.0 mg/kg/injection, schedule: Q01DX009 (ip), vehicle: saline 106 % of control | dose: 6.0 mg/kg/injection, schedule: Q01DX009 (ip), vehicle: saline 115 % of control | dose: 10.0 mg/kg/injection, schedule: Q01DX009 (ip), vehicle: saline 113 % of control | dose: 18.0 mg/kg/injection, schedule: Q01DX009 (ip), vehicle: saline 121 % of control | dose: 30.0 mg/kg/injection, schedule: Q01DX009 (ip), vehicle: saline 124 % of control

NC(=O)CC(NC(=O)CCl)C(=O)O (stereo not drawn)
inactive: [2] 101 % of control | [4] 92 % of control | [6] 92 % of control

CC(C)(C)C1=Nc2ccccc2[Si]1(C)C
inactive: dose: 100.0 mg/kg/injection, schedule: Q01DX001 (ip), vehicle: saline with Tween-80 98 % of control | dose: 200.0 mg/kg/injection, schedule: Q01DX001 (ip), vehicle: saline with Tween-80 102 % of control | dose: 400.0 mg/kg/injection, schedule: Q01DX001 (ip), vehicle: saline with Tween-80 95 % of control

OC1c2ccccc2-c2ccc(Cl)cc21 (stereo not drawn)
inactive: [2] 94 % of control | [4] 86 % of control | [6] 96 % of control

COC(=O)C(C#N)=C(C)C
inactive: dose: 10.0 mg/kg/injection, schedule: Q01DX009 (ip), vehicle: saline with Tween-80 110 % of control | dose: 10.0 mg/kg/injection, schedule: Q04DX003 (ip), vehicle: saline 96 % of control | dose: 20.0 mg/kg/injection, schedule: Q01DX009 (ip), vehicle: saline with Tween-80 101 % of control | dose: 20.0 mg/kg/injection, schedule: Q04DX003 (ip), vehicle: saline 96 % of control | dose: 40.0 mg/kg/injection, schedule: Q01DX009 (ip), vehicle: saline with Tween-80 104 % of control | dose: 40.0 mg/kg/injection, schedule: Q04DX003 (ip), vehicle: saline 96 % of control

O=C(OCc1ccccc1)C1CC1 (tested in a mixture with another compound)
inactive: dose: 25.0 mg/kg/injection, schedule: Q01DX009 (ip), vehicle: saline with Tween-80 86 % of control | dose: 50.0 mg/kg/injection, schedule: Q01DX005 (ip), vehicle: saline with Tween-80 101 % of control | dose: 50.0 mg/kg/injection, schedule: Q01DX009 (ip), vehicle: saline with Tween-80 96 % of control | dose: 50.0 mg/kg/injection, schedule: Q04DX002 (ip), vehicle: saline 102 % of control | dose: 100.0 mg/kg/injection, schedule: Q01DX005 (ip), vehicle: saline with Tween-80 93 % of control | [1] 86 % of control | dose: 100.0 mg/kg/injection, schedule: Q04DX002 (ip), vehicle: saline 97 % of control | dose: 200.0 mg/kg/injection, schedule: Q01DX005 (ip), vehicle: saline with Tween-80 97 % of control | [3] 86 % of control | dose: 200.0 mg/kg/injection, schedule: Q04DX002 (ip), vehicle: saline 105 % of control | dose: 400.0 mg/kg/injection, schedule: Q04DX002 (ip), vehicle: saline 97 % of control

CC(=O)c1cc(F)ccc1O
inactive: [1] 92 % of control | [3] 111 % of control | [5] 88 % of control
